# Test results as given in US20050027003A1, “Methods of therapeutic treatment using retinoids with reduced side effects” (Allergan, Inc., priority 2003, published 2005).
# Experiments:
# AP1 = AP1 antagonism
# patients = experiment: Example 3: two placebo-controlled 24-week safety studies plus dose-response evaluations of oral tazarotene; format: in vivo, human; details: for incidence of patients discontinuing due to adverse effects: placebo 3%
# Experimental: Two multicenter, double-blind, randomized, placebo-controlled 24-week studies of identical design are conducted to evaluate the safety of oral tazarotene. In addition, 16- to 24-week dose-response evaluations are performed.
# In the two safety trials, the incidence of adverse side effects with a 4.5 mg dose administered orally once daily is compared to the incidence of the same side effects with a placebo. […] The majority of these were mild in severity and typical of adverse effects associated with oral retinoids.
# [1] = tested on: patients having nodulocystic acne; experiment: Example 5: two placebo-controlled dose-ranging safety studies in nodulocystic acne; format: in vivo, human; details: for depression, patients: placebo 2%; for emotional lability, patients: placebo 4%
# Experimental: Two placebo-controlled dose-ranging studies are conducted to evaluate the safety of oral tazarotene in patients having nodulocystic acne. In the first study, patients receive orally administered tazarotene at daily doses of 0.4 mg to 2.8 mg in 96 (71+25) patients (12 weeks treatment plus 12 weeks post-treatment). In the second study, daily doses of 0.75 mg to 6 mg tazarotene are administered to 181 patients (24 weeks treatment plus 12 weeks post-treatment).
# patients with acne = experiment: Example 6: studies of oral tazarotene for acne, adverse events (Table 2); format: in vivo, human; details: combined data from Studies 1 and 2 (N = 223)
# Experimental: Studies are conducted on orally administered tazarotene for the treatment of acne. Adverse events (side effects) are monitored.
# [2] = tested on: patient with severe psoriasis; experiment: Example 9: patient with severe psoriasis taking Ortho-Novum, tazarotene 6 mg per day; format: in vivo, human; details: after 30 days
# Source text: The patient presents symptoms of severe psoriasis. The symptoms include lesions approximately 4 to 10 centimeters across appearing as raised patches of wine red skin many of which are covered in silvery white scales. The lesions are mostly dry and rough, and quite often noticeably warm to the touch. The lesions are present on the elbows, knees, scalp, and groin area. The patient experiences intense burning and itching associated with the lesions.
# The patient is currently taking Ortho-Novum® for contraception.
# Tazarotene at a dose of 6 mg per day is prescribed.
# [3] = tested on: patients with severe nodulocystic acne; experiment: Example 10: placebo-controlled parallel-group study of oral tazarotene in severe nodulocystic acne; format: in vivo, human; details: for patients withdrawing due to adverse events: placebo 0%
# Source text: A multicenter, double-blind, randomized, placebo-controlled parallel-group study is undertaken to determine the efficacy of orally administered tazarotene in treating severe nodulocystic acne.
# In addition, washout periods for other medications for this study are: 1 week for vitamin A supplements >5000 IU; 2 weeks for topical anti-acne medications (e.g., retinoids, azelaic acid, benzoyl peroxide); 2 weeks for topical or systemic antibiotic therapy that may alter the course of acne; and 6 months for systemic retinoids.
# Patients are randomized to receive placebo or oral tazarotene (0.75, 1.5, 3, or 6 mg), in a 1:1:1:1:1 ratio once daily for 24 weeks. After this, the patients are followed without treatment for an additional 12 weeks. Patients discontinuing from the treatment period due to adverse effects or lack of efficacy are eligible for entry into the post-treatment phase.
# In the study, overall acne severity is rated as: none (no inflammatory acne lesions); mild (few to several papules or pustules, no nodulocystic lesions); moderate (several to many papules or pustules, few to several nodulocystic lesions); and severe (numerous or extensive papules or pustules, many, for example, at least about 5 or at least about 10, nodulocystic lesions).
# Treatment success is defined as at least moderate (about 50%) improvement on the following 7-point global response scale: • 0=completely cleared • 1=almost cleared (about 90% improvement) • 2=marked response (about 75% improvement) • 3=moderate response (about 50% improvement) • 4=slight response (about 25% improvement) • 5=condition unchanged • 6=condition worsened
# In this study, facial nodulocystic lesion count includes lesions greater than 5 mm in size. Facial papular/pustular lesion count includes lesions less than or equal to 5 mm in size. Facial non-inflammatory lesion count includes open and closed comedones.
# Sebum output is assessed every 4 weeks at selected centers using the Sebutape® patches, sold by Cuderm Corporation. Urinalysis, chemistry, and hematology values are monitored. Bone formation and resorption assessments (serum bone alkaline phosphatase and serum amino terminal telopeptides, respectively) at selected centers are monitored.
# Bone mineral density of spine and proximal femur at selected centers is monitored. Ligament calcification or osteophyte formation (lateral X-ray of the cervical and thoracic spine, and ankle calcaneous) is monitored. Epiphyseal growth plate closure (internal oblique X-ray of the ankle in patients less than or equal to 21 years old) is monitored.
# [4] = tested on: patients with moderate to very severe plaque psoriasis; experiment: Example 4: open-label extension study of oral tazarotene in plaque psoriasis; format: in vivo, human; details: 4.5 mg once daily, 12 weeks, across both groups
# [5] = 0.75 to 6 mg once daily, 24 weeks
smiles,measurement,setting,value
CCOC(=O)c1ccc(C#Cc2ccc3c(c2)C(C)(C)CCS3)nc1 [tazarotene],AP1 antagonism,AP1,potent
same,incidence of patients discontinuing due to adverse effects,patients; 4.5 mg (n=348),3%
same,"incidence of hypertriglyceridemia, hypercholesterolemia, abnormal liver function tests, increased alanine aminotransferase, increased aspartate aminotransferase, desquamation, eye dryness, alopecia",patients; 4.5 mg orally once daily vs placebo,essentially the same incidence
same,incidence of patients discontinuing due to adverse effects,patients; 6.3 mg (n=16),13%
same,incidence of patients discontinuing due to adverse effects,patients; 0.4 to 1.1 mg (n=105),approximately 2%
same,incidence of patients discontinuing due to adverse effects,patients; 2.1 to 2.8 mg (n=21),10%
same,incidence of patients discontinuing due to adverse effects,patients; (n=14),0%
same,"changes in urinalysis, chemistry, or hematology measures (incl. liver function tests, triglycerides, total cholesterol, HDL cholesterol)",[1]; 0.4 mg to 6 mg daily,no consistent dose-related clinically significant changes
same,"ligament calcification, osteophyte formation, changes in serum bone alkaline phosphatase, serum amino terminal telopeptides, bone density",[1]; 0.4 mg to 6 mg daily,not associated with any clinically significant
same,"depression, patients","[1]; 3 mg group (2 mild, 1 severe)",8%
same,"emotional lability, patients",[1]; 3 mg group,3%
same,"depression, patients",[1]; 6 mg group,none
same,"emotional lability, patients",[1]; 6 mg group,14%
same,"dry skin, severe",[1]; all groups,No patient
same,Adverse event: Cheilitis,patients with acne,134 (60.1) number (%) of patients
same,Adverse event: Conjunctivitis,patients with acne,0 (0.0) number (%) of patients
same,Adverse event: Desquamation central face/Desquamation,patients with acne,1 (0.4) number (%) of patients
same,Adverse event: Dry Skin,patients with acne,79 (35.4) number (%) of patients
same,Adverse event: Dry nose,patients with acne,7 (3.1) number (%) of patients
same,Adverse event: Epistaxis,patients with acne,6 (2.7) number (%) of patients
same,Adverse event: Fingertip peeling/Desquamation,patients with acne,1 (0.4) number (%) of patients
same,Adverse event: Headache,patients with acne,26 (11.7) number (%) of patients
same,Adverse event: Irritation of eyes,patients with acne,0 (0.0) number (%) of patients
same,Adverse event: Joint pain/Arthralgia,patients with acne,18 (8.1) number (%) of patients
same,Adverse event: Peeling/Desquamation,patients with acne,1 (0.4) number (%) of patients
same,Adverse event: Pruritus,patients with acne,10 (4.5) number (%) of patients
same,Adverse event: Rash-dermatitis/Rash,patients with acne,7 (3.1) number (%) of patients
same,Adverse event: Red Scaly face/Desquamation,patients with acne,1 (0.4) number (%) of patients
same,Adverse event: Skin fragility/Skin disorder,patients with acne,1 (0.4) number (%) of patients
same,severity of lesions,[2],substantially lessened
same,symptoms of itching and burning,[2],relieved
same,patients withdrawing due to adverse events,[3]; 0.75 mg group (2/35),6%
same,patients withdrawing due to adverse events,[3]; 1.5 mg group (0/37),0%
same,incidence of treatment success (≧50% global improvement) vs placebo,"[3]; 3 mg and 6 mg, week 24 and throughout post-treatment phase, p≦0.05",significantly higher incidence
same,patients withdrawing due to adverse events,[3]; 3 mg group (2/37),5%
same,patients withdrawing due to adverse events,[3]; 6 mg group (1/36),3%
same,percentage of patients with at least a 90% reduction in facial nodulocystic lesion count vs placebo,"[3]; 6 mg group, end of the post-treatment phase",significant superiority over placebo
same,reduction of overall acne severity,"[3]; 6 mg, week 16 until end of post-treatment phase, p≦0.01",significantly more than placebo
same,"bone formation and resorption (serum bone alkaline phosphatase, serum amino terminal telopeptides)",[3]; [5],do not appear to be altered
same,"changes in urinalysis, chemistry, or hematology measures (incl. liver function tests, triglycerides, total cholesterol, HDL cholesterol)",[3]; [5],None of the treatment groups show any consistent clinically significant changes
same,reductions in number of facial papules or pustules and facial non-inflammatory acne lesions vs placebo,[3]; from week 8 onward,consistently greater reductions
same,reductions in number of total facial nodulocystic lesions vs placebo,[3]; from week 8 onward,consistently greater reductions
same,efficacy in severe nodulocystic acne,"[3]; once-daily doses of 1.5, 3, and 6 mg",efficacious
same,incidence of dry skin,[4],25%
same,incidence of headache,[4],11%
same,incidence of infection,[4],10%
